The target of data set [1] is T1, Proteasome Macropain subunit MB1 (Homo sapiens, UniProt P28074).
T1 sequence (P28074 whole entry): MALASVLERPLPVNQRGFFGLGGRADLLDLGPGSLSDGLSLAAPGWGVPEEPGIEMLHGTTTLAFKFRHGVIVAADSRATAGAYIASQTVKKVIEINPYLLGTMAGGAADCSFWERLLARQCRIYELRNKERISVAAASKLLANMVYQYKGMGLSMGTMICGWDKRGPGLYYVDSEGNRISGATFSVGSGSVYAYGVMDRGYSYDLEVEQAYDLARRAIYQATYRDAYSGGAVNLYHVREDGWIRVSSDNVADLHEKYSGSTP
As to the kind of experiment: Inhibition of 20S proteasome beta5 subunit (unknown origin) using Suc-LLVY-AMC as flurogenic substrate measured after 1 hr by fluorescence based analysis. To be noted: read-out: pIC50 (converted).

Data set [2] is described as follows: Cytotoxicity against HEK293 cells incubated for 24 hrs. In kind it is toxicity, cell-based. To be noted: human.
For another data set, the system named is HEK293. Briefly: Cytotoxicity against HEK293 cells at less than 20 uM incubated for 24 hrs. The class given is toxicity, cell-based. The conditions noted are these: human, hek293, 24 h.
The target of data set [3] is NACHT, LRR and PYD domains-containing protein 3 (Mus musculus) (UniProt Q8R4B8). As to the kind of experiment: Inhibition of NLRP3 inflammasome activation in LPS-primed mouse J774.A1 cells assessed as reduction in IL-1beta secretion at 1 uM relative to control. In kind it is cell-based.
NACHT, LRR and PYD domains-containing protein 3 (Mus musculus), sequence (Q8R4B8 whole entry, the tested form may be a part): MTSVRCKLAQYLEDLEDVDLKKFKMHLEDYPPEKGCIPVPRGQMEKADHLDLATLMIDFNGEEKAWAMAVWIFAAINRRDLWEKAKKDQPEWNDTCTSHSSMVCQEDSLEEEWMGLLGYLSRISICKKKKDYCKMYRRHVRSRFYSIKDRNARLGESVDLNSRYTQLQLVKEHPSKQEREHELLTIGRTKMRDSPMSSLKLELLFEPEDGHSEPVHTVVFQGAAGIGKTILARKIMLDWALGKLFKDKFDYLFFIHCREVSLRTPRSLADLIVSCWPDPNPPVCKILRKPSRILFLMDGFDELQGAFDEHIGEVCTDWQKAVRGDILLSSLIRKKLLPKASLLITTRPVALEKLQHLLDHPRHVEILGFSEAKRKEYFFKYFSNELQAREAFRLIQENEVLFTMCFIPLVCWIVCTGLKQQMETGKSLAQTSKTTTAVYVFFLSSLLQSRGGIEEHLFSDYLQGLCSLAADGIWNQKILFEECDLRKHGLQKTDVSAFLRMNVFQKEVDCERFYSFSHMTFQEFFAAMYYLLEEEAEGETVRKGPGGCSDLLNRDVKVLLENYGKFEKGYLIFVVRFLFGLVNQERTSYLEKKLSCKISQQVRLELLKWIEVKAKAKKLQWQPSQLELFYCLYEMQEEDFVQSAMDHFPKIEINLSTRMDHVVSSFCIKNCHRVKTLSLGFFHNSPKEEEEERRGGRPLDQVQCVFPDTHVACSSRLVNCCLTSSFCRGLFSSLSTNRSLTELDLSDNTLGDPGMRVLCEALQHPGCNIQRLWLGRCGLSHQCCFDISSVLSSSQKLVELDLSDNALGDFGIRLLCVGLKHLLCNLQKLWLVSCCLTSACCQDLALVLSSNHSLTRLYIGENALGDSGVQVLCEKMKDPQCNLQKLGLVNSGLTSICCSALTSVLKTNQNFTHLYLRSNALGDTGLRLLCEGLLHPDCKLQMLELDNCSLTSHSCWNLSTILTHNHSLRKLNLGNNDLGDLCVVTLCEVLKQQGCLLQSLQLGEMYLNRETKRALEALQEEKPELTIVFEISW

Molecules are shown by their SMILES.

Turning to `CC(C)C[C@H](NC(=O)CN(C)C(=O)c1cc(Cl)ccc1Cl)B(O)O`, the IC50 in data set [1] is greater than 50.1 nM.
Take `CC(C)C[C@H](NC(=O)[C@H](Cc1ccccc1)NC(=O)c1cc(Cl)ccc1Cl)B(O)O`: the IC50 in data set [1] was 6.31 nM.
`CC(C)C[C@H](NC(=O)[C@H](Cc1ccc(O)cc1)NC(=O)c1cc(Cl)ccc1Cl)B(O)O`: the IC50 in data set [1] was 1 nM. Besides, the IC50 at 24 h in data set [2] is less than 79.4 nM. Moreover, the Activity entry with HEK293 is recorded as “Non-Toxic”.
With `CC(C)C[C@H](NC(=O)[C@H](Cc1ccccc1)NC(=O)c1cc(Cl)ccc1Cl)C(=O)O`, in data set [1], the IC50 was 50.1 nM.
Consider `CC(C)C[C@H](NC(=O)[C@H](Cc1ccccc1)NC(=O)c1cnccn1)C(=O)O`, for which the IC50 in data set [1] was 50.1 nM.
As to `CC(C)C[C@H](NC(=O)[C@H](Cc1ccccc1)NC(=O)c1cccc(Cl)c1Cl)B(O)O`, in data set [1], the IC50 was 1.2 nM. This compound showed an IC50 at 24 h in data set [2] of less than 79.4 nM. The Activity result in the data set on HEK293 was “Non-Toxic”.
For `CC(C)C[C@H](NC(=O)c1ccc(CNC(=O)c2cc(Cl)ccc2Cl)cc1)B(O)O`, in data set [1], the IC50 is greater than 50.1 nM.
In the case of `CC(C)C[C@H](NC(=O)[C@H](Cc1ccccc1)NC(=O)c1ccc(F)cc1F)B(O)O`, the IC50 in data set [1] was 4.79 nM.
Take `CC(C)C[C@H](NC(=O)[C@H](Cc1ccccc1)NC(=O)c1nc(Cl)ccc1Cl)B(O)O`: in data set [1], the IC50 was 4.27 nM. Also, in data set [2], the IC50 at 24 h was less than 79.4 nM. The Activity result in the data set with HEK293 is on record as “Non-Toxic”.
Turning to `CC(C)C[C@H](NC(=O)[C@H](Cc1ccccc1)NC(=O)c1cnc2ccccc2n1)B(O)O`, in data set [1], the IC50 is 13.2 nM.
For `CC(C)C[C@H](NC(=O)[C@@H](NC(=O)c1cc(Cl)ccc1Cl)C(C)C)B(O)O`, in data set [1], the IC50 is 0.708 nM.
As for `CC(C)C[C@H](NC(=O)[C@H](Cc1ccccc1)NC(=O)c1c(Cl)cccc1Cl)B(O)O`, the IC50 in data set [1] was 3.02 nM. The IC50 at 24 h in data set [2] was less than 79.4 nM. Moreover, the Activity result in the data set on HEK293 is “Non-Toxic”.
By inhibition is commonly meant the share of the control response that was lost under treatment. Turning to `O=C(O)C[C@@H]1CC[C@H](NC(=O)Cc2cccs2)B(O)O1`, the inhibition in data set [3] turned out to be 7.8%.
As to `CC(C)C[C@H](NC(=O)[C@H](Cc1ccc2ccccc2c1)NC(=O)c1cc(Cl)ccc1Cl)B(O)O`, in data set [1], the IC50 was 12 nM.
On to `CC(C)C[C@H](NC(=O)c1cc(Cl)ccc1Cl)B(O)O`, for which the IC50 in data set [1] is greater than 50.1 nM.
As to `CC(C)C[C@H](NC(=O)[C@H](Cc1ccccc1)NC(=O)c1cnccn1)B(O)O` [BORTEZOMIB], the IC50 at 24 h in data set [2] is less than 79.4 nM. Further, in the data set with HEK293, the Activity result is listed as “Non-Toxic”.
`CC(C)C[C@H](NC(=O)[C@H](CC(C)C)NC(=O)c1cc(Cl)ccc1Cl)B(O)O`: in data set [1], the IC50 was 4.07 nM.
Still for that read-out and setting: next, `CC(C)C[C@H](NC(=O)[C@H](Cc1ccccc1)NC(=O)c1cc(F)ccc1F)B(O)O`: 6.03 nM; `Cc1cncc(C(=O)N[C@@H](Cc2ccccc2)C(=O)N[C@@H](CC(C)C)B(O)O)n1`: 32.4 nM.
In the case of `COc1ccc(F)cc1C(=O)N[C@@H](Cc1ccccc1)C(=O)N[C@@H](CC(C)C)B(O)O`, in data set [1], the IC50 was 4.47 nM.
`CC(C)C[C@H](NC(=O)[C@H](Cc1ccccc1)NC(=O)c1cccc(F)c1F)B(O)O`: the IC50 in data set [1] was 1.12 nM. This compound also showed an IC50 at 24 h in data set [2] of less than 79.4 nM. For the same compound, the Activity entry with HEK293 is listed as “Non-Toxic”.
As for `CC(C)C[C@H](NC(=O)[C@H](Cc1ccccc1)NS(=O)(=O)c1cc(Cl)ccc1Cl)B(O)O`, the IC50 in data set [1] was 19.5 nM.
Consider `CC(C)C[C@H](NC(=O)[C@H](Cc1ccccc1)NC(=O)c1cc(Cl)ccc1F)B(O)O`, for which the IC50 in data set [1] is 3.02 nM.
For the compound `CC(C)C[C@H](NC(=O)[C@H](Cc1ccccc1)NC(=O)c1ccc(Cl)cc1Cl)B(O)O`, the IC50 in data set [1] was 3.47 nM.
For `CC(C)C[C@H](NC(=O)CNC(=O)c1cc(Cl)ccc1Cl)B(O)O`, the inhibition in data set [3] was determined as 77%.
As for `CC(C)C[C@H](NC(=O)[C@H](Cc1ccccc1)NC(=O)c1ccccn1)B(O)O`, in data set [1], the IC50 is 6.76 nM. The IC50 at 24 h in data set [2] is less than 79.4 nM. The Activity result with HEK293 is recorded as “Non-Toxic”.
Consider `COc1ccc(Cl)cc1C(=O)N[C@@H](Cc1ccccc1)C(=O)N[C@@H](CC(C)C)B(O)O`, for which the IC50 in data set [1] is 8.32 nM.
`CC(C)C[C@H](NC(=O)[C@H](CO)NC(=O)c1cc(Cl)ccc1Cl)B(O)O`: the IC50 in data set [1] is 5.13 nM.
Consider `CC[C@@H](C)[C@H](NC(=O)c1cc(Cl)ccc1Cl)C(=O)N[C@@H](CC(C)C)B(O)O`, for which the IC50 in data set [1] was 3.24 nM.
Consider `CC(C)C[C@H](NC(=O)[C@@H](NC(=O)c1cc(Cl)ccc1Cl)c1ccccc1)B(O)O`, for which, in data set [1], the IC50 is 7.08 nM.

The values above are taken from ChEMBL document CHEMBL5113521, “Discovery of a Novel Oral Proteasome Inhibitor to Block NLRP3 Inflammasome Activation with Anti-inflammation Activity” (J Med Chem, 2022).
